Measurements as given in ChEMBL document CHEMBL1149588, “Inhibition of colon cancer cell growth and antioxidant activity of bioactive compounds from Poncirus trifoliata (L.) Raf” (Bioorg Med Chem, 2007).
The source made the active and inactive calls. The calls are words filed in the database; no cut-off is given here.

What was measured:
[1] = test system: HT-29; experiment: Antiproliferative activity against human HT29 cells at 5 uM after 24 hrs by MTT assay; format: functional, cell-based
[2] = Growth inhibition of monkey COS1 cells at 0.63 uM after 48 hrs by MTT assay; format: cell-based, Macaca mulatta; settings: rhesus monkey, cos-1, 48 h
[3] = test system: HT-29; experiment: Induction of apoptosis in human HT29 cells at 5 uM; format: functional, cell-based
[4] = Growth inhibition of monkey COS1 cells at 1.25 uM after 48 hrs by MTT assay; format: cell-based, Macaca mulatta; settings: rhesus monkey, cos-1, 48 h
[5] = Growth inhibition of monkey COS1 cells at 2.5 uM after 48 hrs by MTT assay; format: cell-based, Macaca mulatta; settings: rhesus monkey, cos-1, 48 h
[6] = Growth inhibition of monkey COS1 cells at 5 uM after 48 hrs by MTT assay; format: cell-based, Macaca mulatta; settings: rhesus monkey, cos-1, 48 h

SMILES | Activity [1] | Activity [2] | Activity [3] | Activity [4] | Activity [5] | Activity [6]
COC(=O)C(O)(CC(=O)O)CC(=O)O | Active | Non-toxic | Active | Non-toxic | Non-toxic | Non-toxic
CC[C@@]1(O)C(=O)OCc2c1cc1n(c2=O)Cc2cc3ccccc3nc2-1 |  |  | Active |  |  | 
CCC(CC[C@@H](C)[C@H]1CC[C@H]2[C@@H]3CC=C4C[C@@H](O)CC[C@]4(C)[C@H]3CC[C@]12C)C(C)C (single isomer, unassigned) [BETA-SITOSTEROL] | Active | Non-toxic | Active | Non-toxic | Non-toxic | Non-toxic
